{"source": "PubChem BioAssay (NCI)", "test_in_all_cases": "inhibition of tumour cell growth, NCI panel, 384-well format", "key": {"[1]": {"system": "786-0 renal"}, "[2]": {"system": "A498 renal"}, "[3]": {"system": "A549 NSCLC"}, "[4]": {"system": "ACHN renal"}, "[5]": {"system": "BT-549 breast"}, "[6]": {"system": "CAKI-1 renal"}, "[7]": {"system": "COLO 205 colon"}, "[8]": {"system": "DU-145 prostate"}, "[9]": {"system": "EKVX NSCLC"}, "[10]": {"system": "HCT-116 colon"}, "[11]": {"system": "HCT-15 colon"}, "[12]": {"system": "HL-60(TB) leukemia"}, "[13]": {"system": "HOP-62 NSCLC"}, "[14]": {"system": "HOP-92 NSCLC"}, "[15]": {"system": "HS 578T breast"}, "[16]": {"system": "HT29 colon"}, "[17]": {"system": "IGROV1 ovarian"}, "[18]": {"system": "K-562 leukemia"}, "[19]": {"system": "KM12 colon"}, "[20]": {"system": "M14 melanoma"}, "[21]": {"system": "MALME-3M melanoma"}, "[22]": {"system": "MCF7 breast"}, "[23]": {"system": "MDA-MB-231 breast"}, "[24]": {"system": "MDA-MB-435 melanoma"}, "[25]": {"system": "MDA-MB-468 breast"}, "[26]": {"system": "MOLT-4 leukemia"}, "[27]": {"system": "NCI-H226 lung"}, "[28]": {"system": "NCI-H23 lung"}, "[29]": {"system": "NCI-H322M lung"}, "[30]": {"system": "NCI-H460 NSCLC"}, "[31]": {"system": "NCI-H522 lung"}, "[32]": {"system": "OVCAR-3 ovarian"}, "[33]": {"system": "OVCAR-4 ovarian"}, "[34]": {"system": "OVCAR-5 ovarian"}, "[35]": {"system": "OVCAR-8 ovarian"}, "[36]": {"system": "PC-3 prostate"}, "[37]": {"system": "RXF 393 renal"}, "[38]": {"system": "SF-268 CNS"}, "[39]": {"system": "SF-295 CNS"}, "[40]": {"system": "SF-539 CNS"}, "[41]": {"system": "SK-MEL-2 melanoma"}, "[42]": {"system": "SK-MEL-28 melanoma"}, "[43]": {"system": "SK-MEL-5 melanoma"}, "[44]": {"system": "SK-OV-3 ovarian"}, "[45]": {"system": "SN12C renal"}, "[46]": {"system": "SNB-19 CNS"}, "[47]": {"system": "SNB-75 CNS"}, "[48]": {"system": "SR leukemia"}, "[49]": {"system": "SW-620 colon"}, "[50]": {"system": "T-47D breast"}, "[51]": {"system": "TK-10 renal"}, "[52]": {"system": "U251 glioblastoma"}, "[53]": {"system": "UACC-257 melanoma"}, "[54]": {"system": "UACC-62 melanoma"}, "[55]": {"system": "UO-31 renal"}}, "note": "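The concentration for 50% growth inhibition is given as GI50. TGI: concentration producing complete growth inhibition.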", "data": [{"smiles": "Cc1ccc(C(=O)Nc2cccc(C(F)(F)F)c2)cc1Nc1nc(-c2cccnc2)nc2c1cnn2C", "values": [{"measurement": "GI50", "setting": "[1]", "value": 1120, "unit": "nM"}, {"measurement": "TGI", "setting": "[1]", "value": 2410, "unit": "nM"}, {"measurement": "GI50", "setting": "[2]", "value": 1210, "unit": "nM"}, {"measurement": "TGI", "setting": "[2]", "value": 2950, "unit": "nM"}, {"measurement": "GI50", "setting": "[3]", "value": 1380, "unit": "nM"}, {"measurement": "TGI", "setting": "[3]", "value": 2960, "unit": "nM"}, {"measurement": "GI50", "setting": "[4]", "value": 1030, "unit": "nM"}, {"measurement": "TGI", "setting": "[4]", "value": 2510, "unit": "nM"}, {"measurement": "GI50", "setting": "[5]", "value": 1670, "unit": "nM"}, {"measurement": "TGI", "setting": "[5]", "value": 3660, "unit": "nM"}, {"measurement": "GI50", "setting": "[6]", "value": 972, "unit": "nM"}, {"measurement": "TGI", "setting": "[6]", "value": 2150, "unit": "nM"}, {"measurement": "GI50", "setting": "[7]", "value": 522, "unit": "nM"}, {"measurement": "TGI", "setting": "[7]", "value": 2220, "unit": "nM"}, {"measurement": "GI50", "setting": "[8]", "value": 1710, "unit": "nM"}, {"measurement": "TGI", "setting": "[8]", "value": 4340, "unit": "nM"}, {"measurement": "GI50", "setting": "[9]", "value": 1150, "unit": "nM"}, {"measurement": "TGI", "setting": "[9]", "value": 3080, "unit": "nM"}, {"measurement": "GI50", "setting": "[10]", "value": 372, "unit": "nM"}, {"measurement": "TGI", "setting": "[10]", "value": 1880, "unit": "nM"}, {"measurement": "GI50", "setting": "[11]", "value": 882, "unit": "nM"}, {"measurement": "TGI", "setting": "[11]", "value": 2160, "unit": "nM"}, {"measurement": "GI50", "setting": "[12]", "value": 80.6, "unit": "nM"}, {"measurement": "TGI", "setting": "[12]", "value": 1280, "unit": "nM"}, {"measurement": "GI50", "setting": "[13]", "value": 1410, "unit": "nM"}, {"measurement": "TGI", "setting": "[13]", "value": 3270, "unit": "nM"}, {"measurement": "GI50", "setting": "[14]", "value": 1580, "unit": "nM"}, {"measurement": "TGI", "setting": "[14]", "value": 5850, "unit": "nM"}, {"measurement": "GI50", "setting": "[15]", "value": 1060, "unit": "nM"}, {"measurement": "TGI", "setting": "[15]", "value": 2310, "unit": "nM"}, {"measurement": "GI50", "setting": "[16]", "value": 341, "unit": "nM"}, {"measurement": "TGI", "setting": "[16]", "value": 1330, "unit": "nM"}, {"measurement": "GI50", "setting": "[17]", "value": 782, "unit": "nM"}, {"measurement": "TGI", "setting": "[17]", "value": 2600, "unit": "nM"}, {"measurement": "GI50", "setting": "[18]", "value": 12.2, "unit": "nM"}, {"measurement": "TGI", "setting": "[18]", "value": 29, "unit": "nM"}, {"measurement": "GI50", "setting": "[19]", "value": 1490, "unit": "nM"}, {"measurement": "TGI", "setting": "[19]", "value": 2980, "unit": "nM"}, {"measurement": "GI50", "setting": "[20]", "value": 291, "unit": "nM"}, {"measurement": "TGI", "setting": "[20]", "value": 1410, "unit": "nM"}, {"measurement": "GI50", "setting": "[21]", "value": 222, "unit": "nM"}, {"measurement": "TGI", "setting": "[21]", "value": 757, "unit": "nM"}, {"measurement": "GI50", "setting": "[22]", "value": 1310, "unit": "nM"}, {"measurement": "TGI", "setting": "[22]", "value": 2620, "unit": "nM"}, {"measurement": "GI50", "setting": "[23]", "value": 181, "unit": "nM"}, {"measurement": "TGI", "setting": "[23]", "value": 3870, "unit": "nM"}, {"measurement": "GI50", "setting": "[24]", "value": 487, "unit": "nM"}, {"measurement": "TGI", "setting": "[24]", "value": 2390, "unit": "nM"}, {"measurement": "GI50", "setting": "[25]", "value": 1080, "unit": "nM"}, {"measurement": "TGI", "setting": "[25]", "value": 2310, "unit": "nM"}, {"measurement": "GI50", "setting": "[26]", "value": 593, "unit": "nM"}, {"measurement": "TGI", "setting": "[26]", "value": 1890, "unit": "nM"}, {"measurement": "GI50", "setting": "[27]", "value": 774, "unit": "nM"}, {"measurement": "TGI", "setting": "[27]", "value": 2120, "unit": "nM"}, {"measurement": "GI50", "setting": "[28]", "value": 248, "unit": "nM"}, {"measurement": "TGI", "setting": "[28]", "value": 1900, "unit": "nM"}, {"measurement": "GI50", "setting": "[29]", "value": 2060, "unit": "nM"}, {"measurement": "TGI", "setting": "[29]", "value": 4890, "unit": "nM"}, {"measurement": "GI50", "setting": "[30]", "value": 383, "unit": "nM"}, {"measurement": "TGI", "setting": "[30]", "value": 1750, "unit": "nM"}, {"measurement": "GI50", "setting": "[31]", "value": 1380, "unit": "nM"}, {"measurement": "TGI", "setting": "[31]", "value": 2720, "unit": "nM"}, {"measurement": "GI50", "setting": "[32]", "value": 1490, "unit": "nM"}, {"measurement": "TGI", "setting": "[32]", "value": 3210, "unit": "nM"}, {"measurement": "GI50", "setting": "[33]", "value": 1590, "unit": "nM"}, {"measurement": "TGI", "setting": "[33]", "value": 4050, "unit": "nM"}, {"measurement": "GI50", "setting": "[34]", "value": 1410, "unit": "nM"}, {"measurement": "TGI", "setting": "[34]", "value": 8450, "unit": "nM"}, {"measurement": "GI50", "setting": "[35]", "value": 1880, "unit": "nM"}, {"measurement": "TGI", "setting": "[35]", "value": 4790, "unit": "nM"}, {"measurement": "GI50", "setting": "[36]", "value": 1820, "unit": "nM"}, {"measurement": "TGI", "setting": "[36]", "value": 4550, "unit": "nM"}, {"measurement": "GI50", "setting": "[37]", "value": 137, "unit": "nM"}, {"measurement": "TGI", "setting": "[37]", "value": 1110, "unit": "nM"}, {"measurement": "GI50", "setting": "[38]", "value": 1700, "unit": "nM"}, {"measurement": "TGI", "setting": "[38]", "value": 4210, "unit": "nM"}, {"measurement": "GI50", "setting": "[39]", "value": 1720, "unit": "nM"}, {"measurement": "TGI", "setting": "[39]", "value": 3150, "unit": "nM"}, {"measurement": "GI50", "setting": "[40]", "value": 677, "unit": "nM"}, {"measurement": "TGI", "setting": "[40]", "value": 2060, "unit": "nM"}, {"measurement": "GI50", "setting": "[41]", "value": 240, "unit": "nM"}, {"measurement": "TGI", "setting": "[41]", "value": 959, "unit": "nM"}, {"measurement": "GI50", "setting": "[42]", "value": 319, "unit": "nM"}, {"measurement": "TGI", "setting": "[42]", "value": 1840, "unit": "nM"}, {"measurement": "GI50", "setting": "[43]", "value": 466, "unit": "nM"}, {"measurement": "TGI", "setting": "[43]", "value": 1820, "unit": "nM"}, {"measurement": "GI50", "setting": "[44]", "value": 1880, "unit": "nM"}, {"measurement": "TGI", "setting": "[44]", "value": 3940, "unit": "nM"}, {"measurement": "GI50", "setting": "[45]", "value": 2150, "unit": "nM"}, {"measurement": "TGI", "setting": "[45]", "value": 10300, "unit": "nM"}, {"measurement": "GI50", "setting": "[46]", "value": 3540, "unit": "nM"}, {"measurement": "TGI", "setting": "[46]", "value": 13300, "unit": "nM"}, {"measurement": "GI50", "setting": "[47]", "value": 1960, "unit": "nM"}, {"measurement": "TGI", "setting": "[47]", "value": 4280, "unit": "nM"}, {"measurement": "GI50", "setting": "[48]", "value": 390, "unit": "nM"}, {"measurement": "TGI", "setting": "[48]", "value": 1320, "unit": "nM"}, {"measurement": "GI50", "setting": "[49]", "value": 955, "unit": "nM"}, {"measurement": "TGI", "setting": "[49]", "value": 2260, "unit": "nM"}, {"measurement": "GI50", "setting": "[50]", "value": 1290, "unit": "nM"}, {"measurement": "TGI", "setting": "[50]", "value": 2700, "unit": "nM"}, {"measurement": "GI50", "setting": "[51]", "value": 1370, "unit": "nM"}, {"measurement": "TGI", "setting": "[51]", "value": 3130, "unit": "nM"}, {"measurement": "GI50", "setting": "[52]", "value": 1630, "unit": "nM"}, {"measurement": "TGI", "setting": "[52]", "value": 3240, "unit": "nM"}, {"measurement": "GI50", "setting": "[53]", "value": 378, "unit": "nM"}, {"measurement": "TGI", "setting": "[53]", "value": 1890, "unit": "nM"}, {"measurement": "GI50", "setting": "[54]", "value": 309, "unit": "nM"}, {"measurement": "TGI", "setting": "[54]", "value": 1510, "unit": "nM"}, {"measurement": "GI50", "setting": "[55]", "value": 605, "unit": "nM"}, {"measurement": "TGI", "setting": "[55]", "value": 2090, "unit": "nM"}]}]}
